Assay results: a melting point compilation (Tetko et al.; mined from patent text by program, amines drawn as free bases though some values may be those of a salt)

Row | SMILES | melting point
1 | CC(C)S(=O)(=O)C(C#N)=Cc1c(Cl)n(C)c2ccccc12 | 141 °C
2 | COc1ccc(-c2ccc(C(=O)Nc3ccc4cc(CN5CCCCCC5)cnc4c3C)cc2)cc1 | 165 to 167 °C
3 | Cc1cc2cc(CN3CCC(CC(=O)N(C)C)CC3)cnc2cc1NC(=O)c1ccc(-c2ccc(F)cc2)cc1 | 219 °C
4 | CCCc1cnc2c(c1)C(=O)OC2=O | 42 to 44 °C
5 | c1ccc(CCN2CCN(Cc3nc4ccccc4[nH]3)CC2)cc1 | 150 to 152 °C
6 | C[C@H](CC#CC(C)(C)O)[C@H]1CCC[C@H]2[C@@H](O)CCC[C@]12C | 134 to 135 °C
7 | O=C(NC(=O)c1c(F)cccc1F)Nc1ccc(F)c(C(F)(F)F)c1Cl | 214 °C
8 | CC1=C(C#N)C(=C(C#N)C#N)OC1(C)C | 203 °C
9 | O=C(NCCO)c1ccc(/C=C/c2ccccc2OCc2ccccc2)cc1 | 149 to 151 °C
10 | CCN1C(=O)C(C)(C)C(=O)N(C)c2cc(CN(CCn3ccc4sccc4c3=O)Cc3cccnc3COC)ccc21 | 119 to 122 °C
11 | Cn1cc(C(=O)CCn2ccnc2)c2ccccc21 | 121 to 123 °C
12 | COc1ccc(C(c2ccc(OC)cc2)C2CN(C)CCC2=O)cc1 (configuration not stated) | 104 to 106 °C
13 | CCCCCCCCCCS(=O)(=O)NC(=O)c1cnc(C(=O)O)c(OC)c1 | 145 °C
14 | COC(=O)C1=C(C)NC(C)=C(C(=O)OCCN2CCN(c3cccc(Cl)c3Cl)CC2)C1c1cccc([N+](=O)[O-])c1 (configuration not stated) | 189 to 190 °C
15 | CCN1CCN(c2ccc(Br)cc2)CC1 | 112 °C
16 | COc1cccc2nc(-c3ccc4c(c3)NC(=O)C4(C)C)[nH]c12 | 222 to 225 °C
17 | O=C(NCC12CC3CC(CC(C3)C1)C2)c1cc(Cl)ccc1Cl | 161 to 162 °C
18 | CCOc1ccc(-c2ccc(Cl)cc2)cc1C=O | 88 to 90 °C
19 | CCOc1cc2c(cc1OC)C(c1ccc(OC)c(OC)c1)=NN=C(C)C2CC (configuration not stated) | 125 to 127 °C

Row | SMILES | melting point
20 | O=C(c1ccccn1)c1cc2ccncc2[nH]1 | 219 to 222 °C
21 | Nc1nc(N)nc(-c2ccc(S(=O)(=O)c3ccccc3)cc2)n1 | > 250 °C
22 | N#Cc1cccc(C2C(=O)c3ccccc3C2=O)c1 | 179 to 182 °C
23 | O=S1(=O)CCN2C=CC=C(c3ccc(Oc4ccccc4)cc3)C2=N1 | 251 to 252 °C
24 | CCOC(=O)CC[C@H](NC(=O)c1ccc(NS(=O)(=O)c2cc3c(cc2Br)CCc2nc(N)[nH]c(=O)c2-3)cc1)C(=O)OCC | 175 °C
25 | COc1cccc(C(=O)c2ccc(=O)n(Cc3ccc(Cl)cc3)c2)c1 | 104 °C
26 | N#Cc1ccc(NC(=NS(=O)(=O)c2ccccc2)NCC(=O)O)cc1 | 133 °C
27 | COc1cccc2c1CCC(CN1CCC(O)(c3ccccc3)CC1)C2=O (configuration not stated) | 163 to 165 °C
28 | C=C(C)C(=O)Oc1ccc2ccc(O)c(-n3nc4ccccc4n3)c2c1 | 167 to 168 °C
29 | N#CCCNC(=O)c1n[nH]cc1NC(=O)c1ccc(Br)o1 | 220 to 222 °C
30 | COC(=O)c1ccc(C(OC(C)=O)OC(C)=O)cc1 | 64 to 67 °C
31 | CNCCCNCCCSP(=O)(O)O | 115 to 120 °C
32 | COC1C(OC(=O)NC(=O)CCl)CCC(O)(CSC)C1C1(C)OC1CC=C(C)C (configuration not stated) | 101 to 102 °C
33 | CCOC(=O)Cc1csc(-c2cccc(O)c2)n1 | 95.5 to 97.2 °C
34 | CNC1(c2ccccc2Cl)C(=O)Nc2ccc(F)cc21 (configuration not stated) | 188 to 189 °C
35 | O=C1OC(c2ccccc2)=NC1=Cc1cccnc1 | 164 °C
36 | CCCCCC(=O)c1c(C)n(C(=O)OC)c(=O)n1C(=O)OC | 84 to 86 °C
37 | CC(=O)N(O)CCc1ccc2c(c1)C(=O)c1ccccc1CO2 | 113 to 115 °C
38 | CC(C)(C)OC(=O)CCON=C(C(=O)O)c1ccco1 | 74.7 to 77.2 °C

Row | SMILES | melting point
39 | C#CCn1c(C)c(C)c2cnnc(OCc3ccccc3)c21 | 116 to 117 °C
40 | CC(=O)C1=C(O)C(=C(C)Nc2ccc(OC(=O)NCc3ccccc3)cc2)C(=O)OC1=O | 195 to 197 °C
41 | CCCCn1c(=O)n(CCN2CCC(C(=O)c3ccc(F)cc3)CC2)c(=O)c2cscc21 | 126 to 127 °C
42 | c1cc(Oc2cnccn2)c2cc[nH]c2c1 | 192 to 193 °C
43 | O=C(O)c1ccc(/C=C/c2ccc3c(=O)[nH]ncc3c2)cc1 | > 345 °C
44 | O=Cc1ccnc2c1NC(=O)c1cccnc1N2C1CC1 | 220 to 222 °C
45 | CN(C)C(=O)Sc1ccccc1C(=O)c1cccc(C#N)c1 | 86 °C
46 | CCOC(=O)COc1cccc(NC(=O)NC2N=C(c3ccccc3F)c3ccccc3N(CC(=O)N3CC4CCC(CC4)C3)C2=O)c1 (racemic) | 156 to 158 °C
47 | NS(=O)(=O)c1cc(C2OCCO2)cs1 | 225 to 227 °C
48 | OCCCSCCSCCCO | 52 °C
49 | O=C(O)[C@H]1O[C@@H]1C1CCCCC1 | 64 to 65 °C
50 | COc1ccccc1C(=O)NS(=O)(=O)c1ccc(N)cc1 | 180 to 182 °C
51 | Nc1ccc(O)c(-c2cccs2)c1 | 130 to 132 °C
52 | Cc1cccc(CCCCCCCCC(=O)Cl)c1 | 96 to 98 °C
53 | Cc1c(-c2ccc(OC(C)C)cc2)n(Cc2ccc(OCCN3CCCCCC3)cc2)c2ccc(O)cc12 | 120 to 125 °C
54 | O=C(Cn1c(=O)oc2ccc(Cl)cc21)c1ccc(C(F)(F)F)cc1 | 188 to 189 °C
55 | COC(=O)CNC(=O)[C@H](CSC(c1ccccc1)(c1ccccc1)c1ccccc1)NC(=O)OC(C)(C)C | 167 to 169 °C
56 | COc1cc(OC)nc(C2OC(=O)c3c(-c4cccs4)ccnc32)n1 (configuration not stated) | 120 to 123 °C

Further lines, results first:

Row | melting point | SMILES
57 | 282 to 283 °C | Cc1cccc2nc(NC(=O)c3ccc(C(C)(C)C(=O)O)cc3)cn12
58 | 152 to 154 °C | CS(=O)(=O)c1ccc(-c2cc(C(=O)CCCO[N+](=O)[O-])nn2-c2ccc(C(F)(F)F)cc2)cc1
59 | 105 to 111 °C | CCC(O)=C1SC(=S)N(c2ccccc2)C1=O
60 | 134 to 138 °C | Oc1ccc(C(F)(F)C(F)(F)C(F)(F)/C=C/C(F)(F)C(F)(F)C(F)(F)c2ccc(O)cc2)cc1
61 | > 90 °C | CC1OC(n2cnc3c(S(N)(=O)=O)nc(N)nc32)C(O)C1O (configuration not stated)
62 | 96 to 99 °C | C#CC(C)Oc1cc(Cl)ccc1-n1c(=O)cc(C(F)(F)F)n(C)c1=O (configuration not stated)
63 | 71.5 to 74.2 °C | CN(C)c1cnc(N)cn1
64 | 95 to 97 °C | CCc1cncnc1O
65 | 140 to 142 °C | Cc1nc[nH]c1CSCCN=C(NC#N)NCCCc1c[nH]cn1
66 | 282 °C | O=C(NC1CCC(CCN2CCC(c3cccc4c3CCO4)CC2)CC1)c1ccc(N2CCS(=O)(=O)CC2)cc1 (configuration not stated)
67 | 155 to 157 °C | COC(=O)N(C1c2ccccc2-c2ccccc21)[C@H]1[C@H](C(=O)O)C[C@H]2C[C@@H]1C2(C)C
68 | 259 to 261 °C | COc1ccc2c(c1)nnc1nnc(C)n12
69 | 117 to 118 °C | CCn1nc(-c2cccc(Cl)c2)c2ncccc2c1=O
70 | > 250 °C | Cc1c(O)c(C=O)c2nc3c(O)ccc(C(=O)NCCN(C)C)c3nc2c1O
71 | 184 to 186 °C | CC(C)(C)CCN[C@@H](CC(=O)O)C(=O)O
72 | 267 to 268 °C | O=C(NC1=NCCS1)c1cnc2c(C(F)(F)F)cccc2c1O
73 | 198 to 200 °C | O=C(c1ccccc1)N1CCc2[nH]c3c(-c4ccccc4)cccc3c2CC1
74 | 136 to 140 °C | Cc1cc(C)n(-c2nccc(Nc3ccc(Cl)cc3)n2)n1
75 | 76 to 77 °C | CCC(C)(C)c1cc(C(=O)CI)cc(C(C)(C)CC)c1O
76 | > 260 °C | O=C(Cn1c(-c2ccc(Cl)cc2)nc2cccnc21)Nc1nccs1
77 | 160 to 161 °C | CC1=C(C(=O)OC(C)C)C(c2cccc([N+](=O)[O-])c2)N(C(N)=O)C(=O)N1 (configuration not stated)
78 | 294 °C | Cn1c2ccccc2c2c(C(=O)O)c(C(=O)O)ccc21
79 | 260 to 262 °C | Cc1nn(-c2ccccn2)c2[nH]c3ccc(N)cc3c(=O)c12

Row | melting point | SMILES
80 | 123 to 125 °C | CN(C=O)C1CCC(O)(c2ccc(Cl)c(Cl)c2)c2ccccc21 (configuration not stated)
81 | 175 to 177 °C | CNC(=O)c1cc(Oc2ccc3c(C(=O)Nc4cccc(C(F)(F)F)c4)cccc3c2)ccn1
82 | 89 to 90 °C | CC1CCN(c2cc(C(C)(C)C)on2)C1=O (configuration not stated)
83 | 77 to 78 °C | CCCCC(C)C(O)C=Cc1ccc(OCc2ccccc2)c(OCc2ccccc2)c1 (configuration not stated)
84 | 218 to 219 °C | COc1ccc(-c2c(Cl)c(CN3C(=O)COC3=O)nc3sc4c(c23)CCC(C(=O)O)C4)cc1 (configuration not stated)
85 | 239 to 241 °C | Cc1ccc2nc(-c3cccc(C(=O)O)c3)oc2c1
86 | 65 to 67 °C | CCOC(=O)Cc1c(C(=O)OCC)c(CC)cn1C
87 | 154 to 157 °C | COc1ccc(N2CCN(CCN3CCC(c4noc5cc(F)ccc45)CC3)C2=O)cc1
88 | 180 to 185 °C | CN1C(=O)CC[C@]2(C)c3ccc(-c4cnc5ccccc5c4)cc3CC[C@@H]12
89 | 140 to 142 °C | Cc1cc(-c2cc(C(F)(F)F)nn2-c2ccc(S(C)(=O)=O)cc2)ccc1-c1cscn1
90 | 124 to 125 °C | CC(=O)C(C)Oc1cc(N)c(Cl)cc1C(=O)NCCN(C)C (configuration not stated)
91 | 267 to 270 °C | COc1nc2c(c(OC)n1)C(c1ccc(F)c(OC)c1)C1=C(COC1=O)N2 (configuration not stated)
92 | 214 to 215 °C | CC(=O)Nc1ccc(-c2nc3ccccc3o2)cc1
93 | 67.5 to 68.5 °C | COC(=O)CCCCCCCCCCCCCCCCCOS(=O)(=O)c1ccc(C)cc1
94 | 197 to 199 °C | NC(=O)Cc1nc(C(=O)c2ccc(F)cc2)no1
95 | 235 to 237 °C | O=C1CCCc2[nH]c3ccc(OCc4ccccc4)cc3c21
96 | 117 to 118 °C | COc1cc(CO)ccc1OCc1coc(-c2ccco2)n1
97 | 100 to 120 °C | CC1COCc2nc3c(N)nc4ccc(OCc5ccccc5)cc4c3n21 (configuration not stated)
98 | 242 to 243 °C | O=C1NCCNN1c1cc(Cl)c(Sc2ccc(Cl)cc2)c(Cl)c1
99 | 114 to 115 °C | CC(C)(C)OC(=O)NCc1ccc2c(c1)CNC2
100 | 165 to 166 °C | O=C(O)Cc1ccccc1Oc1ccc(C(F)(F)F)cc1NS(=O)(=O)c1cc(C(F)(F)F)cc(C(F)(F)F)c1
101 | 69 °C | CC(C)c1nn2ccccc2c1C(O)C(C)C (configuration not stated)
102 | 175 to 176 °C | O=C(Nc1ccc(CN2CCCCC2)cc1)C1=Cc2cc(-c3ccc(F)cc3)ccc2CC1
